In patent US12509444B2, “Compounds and methods for CD73 modulation and indications therefor” (Plexxikon Inc., priority 2019, dated 2025):

Key:
[1] = target: T1, human CD73 (Homo sapiens, UniProt P21589); assay: Inhibitor activity against CD73 in cell based assay (CD73 expressing CHO-K1 cells); settings: CHO-K1 cells expressing human CD73, 150 μM AMP, 4 hours of incubation; read-out: CHO-K1 CELL VARIANT: CD73 IC50
T1 construct: expressed in transfected cells
T1 sequence (P21589 27-549): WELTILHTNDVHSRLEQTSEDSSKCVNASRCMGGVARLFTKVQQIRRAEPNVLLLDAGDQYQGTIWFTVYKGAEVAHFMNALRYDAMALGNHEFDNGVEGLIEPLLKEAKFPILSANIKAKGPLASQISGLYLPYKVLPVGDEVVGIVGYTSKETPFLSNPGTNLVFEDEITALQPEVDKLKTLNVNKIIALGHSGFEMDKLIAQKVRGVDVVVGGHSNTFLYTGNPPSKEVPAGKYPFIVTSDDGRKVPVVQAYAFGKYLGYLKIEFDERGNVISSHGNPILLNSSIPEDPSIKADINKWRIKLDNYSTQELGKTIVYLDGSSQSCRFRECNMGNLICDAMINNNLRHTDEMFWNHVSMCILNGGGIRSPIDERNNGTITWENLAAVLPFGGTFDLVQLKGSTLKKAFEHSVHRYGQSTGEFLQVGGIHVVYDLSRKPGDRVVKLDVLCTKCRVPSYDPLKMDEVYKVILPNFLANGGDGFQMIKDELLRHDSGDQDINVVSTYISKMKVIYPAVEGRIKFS
How it was run: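 Residual supernatant AMP was quantified via CellTiter-Glo luminescence (1 μM ATP added, 30 min, room temperature) after a 4 h exposure of human CD73-expressing CHO-K1 cells to 150 μM AMP plus compound, top final 10 μM, 8 points. IC50 came from nonlinear regression of percent inhibition.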

[2] = target: T2, Human CD73 (amino acid residues 27-549) (Homo sapiens, UniProt P21589); assay: CD73 enzymatic assay (luciferase-based indirect assay, CellTiter-Glo); format: biochemical; settings: 0.4 nM CD73, 150 μM AMP, 1 hour at room temperature
T2 construct: Human CD73 (amino acid residues 27-549); His tag (N); made in house; host or cells: E. coli
T2 sequence (P21589 27-549): T1 sequence (P21589 27-549)
How it was run: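 Residual AMP inhibits luciferase, so luminescence reports CD73 turnover; read with CellTiter-Glo 2.0 plus 1 μM final ATP, 30 min. Reaction used 0.4 nM N-His CD73 (27-549, E. coli), 150 μM AMP, HEPES pH 7.4 with Tween 20, 1 h at room temperature. IC50 fitted by nonlinear regression.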

IC50 [1] | IC50 [2] | SMILES
0.001 to 10 µM | 0.001 to 10 µM | O=CNC1CC2(C1)CC(NC(=O)O[C@@H]1CCN(c3cn[nH]c(=O)c3Cl)C1)C2 (stereo partly drawn) [P-0213, (R)-1-(5-chloro-6-oxo-1,6-dihydropyridazin-4-yl)pyrrolidin-3-yl (6-formamidospiro[3.3]heptan-2-yl)carbamate]
0.001 to 10 µM | 0.001 to 10 µM | O=C(Nc1ccc(F)cc1)NC1CC2(C1)CC(NC(=O)O[C@@H]1CCN(c3cn[nH]c(=O)c3Cl)C1)C2 (stereo partly drawn) [P-0214, (R)-1-(5-chloro-6-oxo-1,6-dihydropyridazin-4-yl)pyrrolidin-3-yl (6-(3-(4-fluorophenyl)ureido)spiro[3.3]heptan-2-yl)carbamate]
0.001 to 10 µM | 0.001 to 10 µM | CCC(CC)NC(=O)O[C@@H]1CCN(c2cn[nH]c(=O)c2Cl)C1 [P-0215, (R)-1-(5-chloro-6-oxo-1,6-dihydropyridazin-4-yl)pyrrolidin-3-yl pentan-3-ylcarbamate]
0.001 to 10 µM | 0.001 to 10 µM | Cn1ncc(N2CC[C@@H](OC(=O)N[C@H]3CC[C@H](NS(=O)(=O)c4ccc(F)cc4)CC3)C2)c(Cl)c1=O [P-0216, (R)-1-(5-chloro-1-methyl-6-oxo-1,6-dihydropyridazin-4-yl)pyrrolidin-3-yl ((1r,4R)-4-((4-fluorophenyl)sulfonamido)cyclohexyl)carbamate]
0.001 to 10 µM | 0.001 to 10 µM | Cn1ncc(N2CC[C@@H](OC(=O)N[C@H]3CC[C@H](NC(=O)c4ccccc4)CC3)C2)c(Cl)c1=O [P-0217, (R)-1-(5-chloro-1-methyl-6-oxo-1,6-dihydropyridazin-4-yl)pyrrolidin-3-yl ((1r,4R)-4-benzamidocyclohexyl) carbamate]
0.001 to 10 µM | 0.001 to 10 µM | Cn1ncc(N2CC[C@@H](OC(=O)N[C@H]3CC[C@H](NS(=O)(=O)NC4CCCC4)CC3)C2)c(Cl)c1=O [P-0218, (R)-1-(5-chloro-1-methyl-6-oxo-1,6-dihydropyridazin-4-yl)pyrrolidin-3-yl ((1r,4R)-4-((N-cyclopentylsulfamoyl)amino)cyclohexyl)carbamate]
10 to 100 µM | 10 to 100 µM | CC(C)(C)c1nnc(NC(=O)O[C@@H]2CCN(c3cn[nH]c(=O)c3Cl)C2)s1 [P-0219, (R)-1-(5-chloro-6-oxo-1,6-dihydropyridazin-4-yl)pyrrolidin-3-yl (5-(tert-butyl)-1,3,4-thiadiazol-2-yl)carbamate]
0.001 to 10 µM | 0.001 to 10 µM | Cc1cc(NC(=O)O[C@@H]2CCN(c3cn[nH]c(=O)c3Cl)C2)no1 [P-0220, (R)-1-(5-chloro-6-oxo-1,6-dihydropyridazin-4-yl)pyrrolidin-3-yl (5-methylisoxazol-3-yl)carbamate]
10 to 100 µM | 10 to 100 µM | Cc1nc(NC(=O)O[C@@H]2CCN(c3cn[nH]c(=O)c3Cl)C2)sc1C [P-0221, (R)-1-(5-chloro-6-oxo-1,6-dihydropyridazin-4-yl)pyrrolidin-3-yl (4,5-dimethylthiazol-2-yl)carbamate]
10 to 100 µM | 0.001 to 10 µM | Cn1cc(NC(=O)O[C@@H]2CCN(c3cn[nH]c(=O)c3Cl)C2)cn1 [P-0222, (R)-1-(5-chloro-6-oxo-1,6-dihydropyridazin-4-yl)pyrrolidin-3-yl (1-methyl-1H-pyrazol-4-yl)carbamate]
10 to 100 µM | 10 to 100 µM | O=C(NCc1cc(C2CC2)[nH]n1)O[C@@H]1CCN(c2cn[nH]c(=O)c2Cl)C1 [P-0223, (R)-1-(5-chloro-6-oxo-1,6-dihydropyridazin-4-yl)pyrrolidin-3-yl ((5-cyclopropyl-1H-pyrazol-3-yl)methyl)carbamate]
10 to 100 µM | 0.001 to 10 µM | O=C(Nc1cnn2cccnc12)O[C@@H]1CCN(c2cn[nH]c(=O)c2Cl)C1 [P-0224, (R)-1-(5-chloro-6-oxo-1,6-dihydropyridazin-4-yl)pyrrolidin-3-yl pyrazolo[1,5-a]pyrimidin-3-ylcarbamate]
10 to 100 µM | 0.001 to 10 µM | O=C(Nc1ncco1)O[C@@H]1CCN(c2cn[nH]c(=O)c2Cl)C1 [P-0225, (R)-1-(5-chloro-6-oxo-1,6-dihydropyridazin-4-yl)pyrrolidin-3-yl oxazol-2-ylcarbamate]
0.001 to 10 µM | 0.001 to 10 µM | CCn1cc(S(=O)(=O)N[C@H]2CC[C@H](NC(=O)O[C@@H]3CCN(c4cnn(C)c(=O)c4Cl)C3)CC2)cn1 [P-0226, (R)-1-(5-chloro-1-methyl-6-oxo-1,6-dihydropyridazin-4-yl)pyrrolidin-3-yl ((1r,4R)-4-((1-ethyl-1H-pyrazole)-4-sulfonamido)cyclohexyl) carbamate]
0.001 to 10 µM | 0.001 to 10 µM | Cn1ncc(N2CC[C@@H](OC(=O)N[C@H]3CC[C@H](NS(=O)(=O)C4CC4)CC3)C2)c(Cl)c1=O [P-0227, (R)-1-(5-chloro-1-methyl-6-oxo-1,6-dihydropyridazin-4-yl)pyrrolidin-3-yl ((1r,4R)-4-(cyclopropanesulfonamido)cyclohexyl)carbamate]
0.001 to 10 µM | 0.001 to 10 µM | Cn1ncc(N2CC[C@@H](OC(=O)N[C@H]3CC[C@H](NS(=O)(=O)C4CCCC4)CC3)C2)c(Cl)c1=O [P-0228, (R)-1-(5-chloro-1-methyl-6-oxo-1,6-dihydropyridazin-4-yl)pyrrolidin-3-yl ((1r,4R)-4-(cyclopentanesulfonamido)cyclohexyl)carbamate]
0.001 to 10 µM | 0.001 to 10 µM | C[C@]1(O)CC[C@H](NC(=O)O[C@@H]2CCN(c3cn[nH]c(=O)c3Cl)C2)CC1 [P-0229, (R)-1-(5-chloro-6-oxo-1,6-dihydropyridazin-4-yl)pyrrolidin-3-yl ((1r,4R)-4-hydroxy-4-methylcyclohexyl)carbamate]
0.001 to 10 µM | 0.001 to 10 µM | CO[C@H]1CC[C@H](NC(=O)O[C@@H]2CCN(c3cn[nH]c(=O)c3Cl)C2)CC1 [P-0230, (R)-1-(5-chloro-6-oxo-1,6-dihydropyridazin-4-yl)pyrrolidin-3-yl ((1r,4R)-4-methoxycyclohexyl)carbamate]
0.001 to 10 µM | 0.001 to 10 µM | CO[C@H]1CC[C@@H](NC(=O)O[C@@H]2CCN(c3cn[nH]c(=O)c3Cl)C2)CC1 [P-0231, (R)-1-(5-chloro-6-oxo-1,6-dihydropyridazin-4-yl)pyrrolidin-3-yl ((1s,4S)-4-methoxycyclohexyl)carbamate]
0.001 to 10 µM | 0.001 to 10 µM | O=C(NCC1CCS(=O)(=O)CC1)O[C@@H]1CCN(c2cn[nH]c(=O)c2Cl)C1 [P-0232, (R)-1-(5-chloro-6-oxo-1,6-dihydropyridazin-4-yl)pyrrolidin-3-yl ((1,1-dioxidotetrahydro-2H-thiopyran-4-yl)methyl)carbamate]
0.001 to 10 µM | 0.001 to 10 µM | O=C(NCC1CCCCC1)O[C@@H]1CCN(c2cn[nH]c(=O)c2Cl)C1 [P-0233, (R)-1-(5-chloro-6-oxo-1,6-dihydropyridazin-4-yl)pyrrolidin-3-yl (cyclohexylmethyl)carbamate]
0.001 to 10 µM | 0.001 to 10 µM | O=C(NCCC1CCCC1)O[C@@H]1CCN(c2cn[nH]c(=O)c2Cl)C1 [P-0234, (R)-1-(5-chloro-6-oxo-1,6-dihydropyridazin-4-yl)pyrrolidin-3-yl (2-cyclopentylethyl)carbamate]
0.001 to 10 µM | 0.001 to 10 µM | O=C(NCCCO)O[C@@H]1CCN(c2cn[nH]c(=O)c2Cl)C1 [P-0235, (R)-1-(5-chloro-6-oxo-1,6-dihydropyridazin-4-yl)pyrrolidin-3-yl (3-hydroxypropyl)carbamate]
0.001 to 10 µM | 0.001 to 10 µM | O=C(NCC1CCOCC1)O[C@@H]1CCN(c2cn[nH]c(=O)c2Cl)C1 [P-0236, (R)-1-(5-chloro-6-oxo-1,6-dihydropyridazin-4-yl)pyrrolidin-3-yl ((tetrahydro-2H-pyran-4-yl)methyl)carbamate]
0.001 to 10 µM | 0.001 to 10 µM | O=C(N[C@@H]1CC[C@H](NS(=O)(=O)c2ccccc2F)C1)O[C@@H]1CCN(c2cn[nH]c(=O)c2Cl)C1 [P-0237, (R)-1-(5-chloro-6-oxo-1,6-dihydropyridazin-4-yl)pyrrolidin-3-yl ((1R,3S)-3-((2-fluorophenyl)sulfonamido)cyclopentyl)carbamate]
0.001 to 10 µM | 0.001 to 10 µM | Cn1ncc(N2CC[C@@H](OC(=O)N[C@H]3CC[C@H](NS(=O)(=O)c4c(F)cccc4F)CC3)C2)c(Cl)c1=O [P-0238, (R)-1-(5-chloro-1-methyl-6-oxo-1,6-dihydropyridazin-4-yl)pyrrolidin-3-yl ((1r,4R)-4-((2,6-difluorophenyl)sulfonamido)cyclohexyl)carbamate]
